Source: patent US10294202B2, “Pyrrolidinones as herbicides” (FMC Corporation, priority 2013, dated 2019)

How the values were obtained:
[1] = test system: corn; assay: Test A pre-/postemergence herbicide test; type: in vivo, Zea mays
Method in brief: (§1)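 Visual 0–100 ratings (100 = complete control) made about 10 days after treatment, greenhouse-held plants compared with untreated controls. Treatments: postemergence sprays on one- to two-leaf plants (2–10 cm tall) and preemergence directed soil sprays after planting in loam–sand, chemicals formulated in non-phytotoxic solvent containing surfactant.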

[2] = test system: blackgrass; assay: Test A postemergence herbicide test; type: in vivo, Alopecurus myosuroides
Method in brief: (§2)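 Plants at the one- to two-leaf stage, 2–10 cm tall, grown in loam/sand pots, received postemergence sprays of the test chemicals. After about 10 days in the greenhouse, injury was scored visually against untreated controls on a 0–100 scale (0 none, 100 complete control).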

[3] = test system: sedge, umbrella; assay: Test B flooded paddy test; type: in vivo, Cyperus difformis; conditions: Flood, scale of 0 to 100 where 0 is no effect and 100 is complete control
Method in brief: (§3)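 Treatment was made at the 2-leaf stage by dosing the standing floodwater, kept 3 cm above soil level for the whole test. Greenhouse exposure lasted 13 to 15 days. Response is a visual percent rating relative to controls, where a dash indicates no test result.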

[4] = test system: wheat; assay: Test A pre-/postemergence herbicide test; type: in vivo, Triticum aestivum
Method in brief: as §1

[5] = test system: galium; assay: Test A postemergence herbicide test; type: in vivo, Galium aparine
Method in brief: as §2

[6] = test system: ragweed; assay: Test A pre-/postemergence herbicide test; type: in vivo, Ambrosia elatior; conditions: for Plant response rating, Ragweed: 0 to 100 scale
Method in brief: as §1

[7] = test system: kochia; assay: Test A pre-/postemergence herbicide test; type: in vivo, Kochia scoparia; conditions: for Plant response rating, Kochia: 0 to 100 scale
Method in brief: as §1

[8] = test system: ducksalad; assay: Test B flooded paddy test; type: in vivo, Heteranthera limosa; conditions: Flood, scale of 0 to 100 where 0 is no effect and 100 is complete control
Method in brief: as §3

[9] = test system: rice; assay: Test B flooded paddy test; type: in vivo, Oryza sativa; conditions: Flood, scale of 0 to 100 where 0 is no effect and 100 is complete control
Method in brief: as §3

[10] = test system: barnyardgrass; assay: Test A pre-/postemergence herbicide test; type: in vivo, Echinochloa crus-galli
Method in brief: as §1

[11] = test system: giant foxtail; assay: Test A pre-/postemergence herbicide test; type: in vivo, Setaria faberii
Method in brief: as §1

[12] = test system: ryegrass, Italian; assay: Test A pre-/postemergence herbicide test; type: in vivo, Lolium multiflorum; conditions: for Plant response rating, Ryegrass, Italian: 0 to 100 scale
Method in brief: as §1

[13] = test system: barnyardgrass; assay: Test B flooded paddy test; type: in vivo, Echinochloa crus-galli; conditions: Flood, scale of 0 to 100 where 0 is no effect and 100 is complete control
Method in brief: as §3

[14] = test system: pigweed; assay: Test A pre-/postemergence herbicide test; type: in vivo, Amaranthus retroflexus
Method in brief: as §1

[15] = test system: crabgrass, large; assay: Test A pre-/postemergence herbicide test; type: in vivo, Digitaria sanguinalis
Method in brief: as §1

[16] = test system: morningglory; assay: Test A pre-/postemergence herbicide test; type: in vivo, Ipomoea spp.
Method in brief: as §1

[17] = test system: velvetleaf; assay: Test A pre-/postemergence herbicide test; type: in vivo, Abutilon theophrasti
Method in brief: as §1

[18] = Postemergence, 125 g ai/ha, 0 to 100 scale, 0 no effect, 100 complete control
[19] = Postemergence, 500 g ai/ha, 0 to 100 scale (0 no effect, 100 complete control)
[20] = 125 g ai/ha, 0 to 100 scale, 0 no effect, 100 complete control
[21] = 125 g ai/ha, visual rating, 0 no effect, 100 complete control, approximately 10 days, preemergence
[22] = Postemergence, 125 g ai/ha, 0 no effect, 100 complete control
[23] = 125 g ai/ha, visual rating, 0 to 100 scale, 0 no effect, 100 complete control, approximately 10 days, preemergence
[24] = preemergence, 500 g ai/ha, 0 to 100 scale (0 no effect, 100 complete control)
[25] = preemergence, 500 g ai/ha, 0 to 100 scale
[26] = Preemergence, 125 g ai/ha, visual rating on 0 to 100 scale (0 no effect, 100 complete control)
[27] = Postemergence, 1000 g ai/ha, 0 to 100 scale (0 no effect, 100 complete control)
[28] = preemergence, 1000 g ai/ha, 0 to 100 scale

O=C1NCC(c2cccc(OC(F)(F)C(F)F)c2)C1C(=O)Nc1ccc(F)c(F)c1F (racemic) [Compound 124]
Plant response rating, Corn [1, 18]: 0
Plant response rating, Corn [1, 19]: 50
Plant response rating, Blackgrass [2, 20]: 40
Plant response rating, Blackgrass ([2]; 500 g ai/ha, 0 to 100 scale (0 no effect, 100 complete control)): 70
Plant response rating, Sedge, Umbrella ([3]; 500 g ai/ha): 0
Plant response rating, Wheat [4, 18]: 30
Wheat plant response rating (0 to 100 scale, 0 is no effect, 100 is complete control) ([4]; Postemergence, 500 g ai/ha): 50
Plant response rating, Galium [5, 20]: 70
Galium plant response rating (0 to 100 scale, 0 is no effect, 100 is complete control) ([5]; 500 g ai/ha): 80
Plant response rating, Ragweed [6, 21]: 40
Plant response rating, Ragweed [6, 22]: 40
Ragweed plant response rating (0 to 100 scale, 0 is no effect, 100 is complete control) ([6]; Postemergence, 500 g ai/ha): 70
Plant response rating, Ragweed ([6]; preemergence, 500 g ai/ha): 50
Plant response rating, Kochia [7, 21]: 60
Plant response rating, Kochia [7, 22]: 70
Kochia plant response rating (0 to 100 scale, 0 is no effect, 100 is complete control) ([7]; Postemergence, 500 g ai/ha): 80
Plant response rating, Kochia ([7]; preemergence, 500 g ai/ha): 70
Plant response rating, Ducksalad ([8]; 500 g ai/ha): 100
Plant response rating, Rice ([9]; 500 g ai/ha): 0
Plant response rating, Barnyardgrass [10, 23]: 70
Plant response rating, Barnyardgrass [10, 18]: 60
Plant response rating, Barnyardgrass [10, 19]: 70
Plant response rating, Barnyardgrass [10, 24]: 80
Plant response rating, Foxtail, Giant [11, 23]: 80
Plant response rating, Foxtail, Giant [11, 18]: 80
Foxtail, Giant plant response rating (0 to 100 scale, 0 is no effect, 100 is complete control) ([11]; Postemergence, 500 g ai/ha): 90
Plant response rating, Foxtail, Giant [11, 25]: 90
Plant response rating, Ryegrass, Italian [12, 21]: 0
Plant response rating, Ryegrass, Italian [12, 22]: 30
Ryegrass, Italian plant response rating (0 to 100 scale, 0 is no effect, 100 is complete control) ([12]; Postemergence, 500 g ai/ha): 50
Plant response rating, Ryegrass, Italian ([12]; preemergence, 500 g ai/ha): 40
Plant response rating, Barnyardgrass ([13]; 500 g ai/ha): 40
Plant response rating, Pigweed [14, 23]: 70
Plant response rating, Pigweed [14, 18]: 60
Pigweed plant response rating (0 to 100 scale, 0 is no effect, 100 is complete control) ([14]; Postemergence, 500 g ai/ha): 70
Plant response rating, Pigweed [14, 25]: 80

NC1=NCC(c2ccc(F)c(F)c2)C1C(=O)Nc1ccccc1F (centres unmarked) [Compound 95, 2-amino-4-(3,4-difluorophenyl)-N-(2-fluorophenyl)dihydro-3H-pyrrole-3-carboxamide]
Plant response rating, Corn [1, 18]: 0
Plant response rating, Corn [1, 19]: 0
Corn plant response rating [1, 26]: 0
Plant response rating, Corn [1, 25]: 0
Plant response rating, Sedge, Umbrella ([3]; 250 g ai/ha): 0
Plant response rating, Wheat [4, 18]: 0
Plant response rating, Wheat [4, 19]: 0
Wheat plant response rating [4, 26]: 0
Plant response rating, Wheat [4, 25]: 0
Plant response rating, Crabgrass, Large [15, 18]: 80
Plant response rating, Crabgrass, Large [15, 19]: 90
Crabgrass, Large plant response rating [15, 26]: 90
Plant response rating, Crabgrass, Large [15, 25]: 90
Plant response rating, Ducksalad ([8]; 250 g ai/ha): 90
Plant response rating, Rice ([9]; 250 g ai/ha): 0
Plant response rating, Barnyardgrass [10, 18]: 80
Plant response rating, Barnyardgrass [10, 19]: 90
Barnyardgrass plant response rating [10, 26]: 60
Plant response rating, Barnyardgrass [10, 24]: 90
Plant response rating, Morningglory [16, 18]: 0
Plant response rating, Morningglory [16, 19]: 0
Morningglory plant response rating [16, 26]: 0
Plant response rating, Morningglory [16, 25]: 0
Plant response rating, Foxtail, Giant [11, 18]: 70
Plant response rating, Foxtail, Giant [11, 19]: 80
Foxtail, Giant plant response rating [11, 26]: 80
Plant response rating, Foxtail, Giant [11, 25]: 90
Plant response rating, Barnyardgrass ([13]; 250 g ai/ha): 0
Plant response rating, Pigweed [14, 18]: 0
Plant response rating, Pigweed [14, 19]: 0
Pigweed plant response rating [14, 26]: 0
Plant response rating, Pigweed [14, 25]: 0
Plant response rating, Velvetleaf [17, 18]: 0
Plant response rating, Velvetleaf [17, 19]: 0
Velvetleaf plant response rating [17, 26]: 0
Plant response rating, Velvetleaf [17, 25]: 0

CON(C(=O)C1C(=O)NCC1c1ccc(F)c(F)c1)c1ccccc1[N+](=O)[O-] (centres unmarked) [Compound 243]
Plant response rating, Corn [1, 27]: 0
Plant response rating, Corn [1, 28]: 0
Plant response rating, Sedge, Umbrella ([3]; 250 g ai/ha): 0
Plant response rating, Wheat [4, 27]: 0
Plant response rating, Wheat [4, 28]: 0
Plant response rating, Crabgrass, Large [15, 27]: 0
Plant response rating, Crabgrass, Large [15, 28]: 90
Plant response rating, Ducksalad ([8]; 250 g ai/ha): 0
Plant response rating, Rice ([9]; 250 g ai/ha): 0
Plant response rating, Barnyardgrass [10, 27]: 60
Plant response rating, Barnyardgrass ([10]; preemergence, 1000 g ai/ha, 0 to 100 scale (0 no effect, 100 complete control)): 80
Plant response rating, Morningglory [16, 27]: 0
Plant response rating, Morningglory [16, 28]: 0
Plant response rating, Foxtail, Giant [11, 27]: 20
Plant response rating, Foxtail, Giant [11, 28]: 90
Plant response rating, Barnyardgrass ([13]; 250 g ai/ha): 0
Plant response rating, Pigweed [14, 27]: 0
Plant response rating, Pigweed [14, 28]: 0
Plant response rating, Velvetleaf [17, 27]: 0
Plant response rating, Velvetleaf [17, 28]: 0
